{"source": "paper PMC12655351", "about": "“Synthesis and Anticancer Activity Evaluation of New 5-((5-Nitrofuran-2-yl)allylidene)-2-thioxo-4-thiazolidinones” (Pharmaceuticals, 2025)", "key": {"[1]": {"test_system": "SK-MEL-28", "experiment": "cells", "settings": "Homo sapiens, SK-MEL-28, 48 h"}, "[2]": {"test_system": "MOLT-4", "experiment": "cells", "settings": "Homo sapiens, MOLT-4, 48 h"}, "[3]": {"test_system": "RPMI-8226", "settings": "RPMI-8226, 48 h"}, "[4]": {"test_system": "CCRF-CEM", "experiment": "cells", "settings": "Homo sapiens, 48 h"}, "[5]": {"test_system": "786-0", "settings": "786-0, 48 h"}, "[6]": {"test_system": "MOLT-4", "settings": "MOLT-4, 48 h"}, "[7]": {"test_system": "DU-145", "settings": "DU-145, 48 h"}, "[8]": {"test_system": "NCI/ADR-RES", "experiment": "cells", "settings": "Homo sapiens, 48 h"}, "[9]": {"test_system": "HL-60(TB)", "experiment": "NCI-60 SRB screen"}, "[10]": {"test_system": "AGS", "experiment": "MTT assay", "format": "cell-based", "settings": "Homo sapiens, 24 h of treatment", "procedure": "(§1) The NCI-60 screening protocol utilizes the sulforhodamine B (SRB) assay following 48 h of compound exposure. […] The MTT assay was performed on eleven cancer cell lines: human breast cancer (MDA-MB-231, MCF-7, HCC 1954), human gastric cancer (AGS), human colorectal adenocarcinoma (HT-29, DLD-1, HCT 116), human neuroblastoma (SH SY5Y), and human leukemia (JURKAT, RMPI 8866, K-562) cell lines. The study was conducted in triplicate at the following seven concentrations: 0.62, 1.25, 2.5, 5, 10, 20, and 40 μM.\n(§2) The selected cell lines were seeded into 96-well plates and cultured in accordance with the previously described methodology. Then, the cells were treated with all tested compounds and DOX at concentrations of 0.625, 1.25, 2.5, 5.0, 10.0, 20.0, and 40.0 μM for 24 h. A solution of 3-(4,5-dimethyl-2-thiazolyl)-2,5-diphenyl-2H-tetrazolium bromide (Sigma-Aldrich, St. Louis, MO, USA) in phosphate-buffered saline without calcium and magnesium (Corning, Kennebunk, ME, USA) at a concentration of 5 mg/mL was used to carry out MTT assay. After incubation, 20 μL of the prepared MTT solution was added, and then the cells were incubated at 37 °C for two hours. Afterwards, the cells were lysed using 100 μL of lysing buffer (comprising 25 mM HCl, 2% acetic acid, 3% DMF, and 5% SDS, with a pH of 4.7). The absorbance was determined at a wavelength of 570 nm using an Absorbance 96 microplate reader (Byonoy GmbH, Hamburg, Germany)."}, "[11]": {"test_system": "K562", "experiment": "MTT assay", "format": "cell-based", "settings": "Homo sapiens; K562, 24 h of treatment", "procedure": "as §1, §2"}, "[12]": {"test_system": "MDA-MB-231", "experiment": "MTT assay", "format": "cell-based", "settings": "Homo sapiens; MDA-MB-231, 24 h of treatment", "procedure": "as §1, §2"}, "[13]": {"test_system": "SH SY5Y", "experiment": "MTT assay", "format": "cell-based", "settings": "Homo sapiens, 24 h of treatment", "procedure": "as §1, §2"}, "[14]": {"test_system": "HT-29", "experiment": "MTT assay", "format": "cell-based", "settings": "Homo sapiens; HT-29, 24 h of treatment", "procedure": "as §1, §2"}, "[15]": {"test_system": "HCC-1954", "experiment": "MTT assay", "format": "cell-based", "settings": "Homo sapiens, HCC1954; HCC-1954, 24 h of treatment", "procedure": "as §1, §2"}, "[16]": {"test_system": "HCT-116", "experiment": "MTT assay", "format": "cell-based", "settings": "Homo sapiens; HCT-116, 24 h of treatment", "procedure": "as §1, §2"}, "[17]": {"test_system": "MCF-7", "experiment": "MTT assay", "format": "cell-based", "settings": "Homo sapiens, MCF7; MCF-7, 24 h of treatment", "procedure": "as §1, §2"}, "[18]": {"test_system": "Jurkat", "experiment": "MTT assay", "format": "cell-based", "settings": "Homo sapiens, 24 h of treatment", "procedure": "as §1, §2"}, "[19]": {"test_system": "RPMI 8866", "experiment": "MTT assay", "format": "cell-based", "settings": "Homo sapiens; RPMI 8866, 24 h of treatment", "procedure": "as §1, §2"}, "[20]": {"test_system": "DLD-1", "experiment": "MTT assay", "format": "cell-based", "settings": "Homo sapiens; DLD-1, 24 h of treatment", "procedure": "as §1, §2"}, "[21]": {"test_system": "TK-10", "settings": "TK-10, 48 h"}, "[22]": {"test_system": "SW-620", "experiment": "NCI-60 SRB screen", "settings": "SW-620, 48 h"}, "[23]": {"test_system": "CCRF-CEM", "settings": "48 h"}, "[24]": {"test_system": "Non-small cell lung cancer", "experiment": "cells", "settings": "Homo sapiens"}, "[25]": {"test_system": "CNS cancer", "experiment": "cells", "settings": "Homo sapiens"}, "[26]": {"test_system": "T-47D", "experiment": "cells", "settings": "Homo sapiens, T47D, 48 h, T-47D"}, "[27]": {"test_system": "TK-10", "experiment": "cells", "settings": "Homo sapiens, TK-10, 48 h"}, "[28]": {"test_system": "HOP-92", "experiment": "NCI-60 SRB screen", "settings": "HOP-92, 48 h"}, "[29]": {"test_system": "SK-MEL-2", "experiment": "NCI-60 SRB screen", "settings": "SK-MEL-2, 48 h"}, "[30]": {"test_system": "EKVX", "experiment": "NCI-60 SRB screen", "settings": "48 h"}, "[31]": {"test_system": "OVCAR-5", "experiment": "NCI-60 SRB screen", "settings": "OVCAR-5, 48 h"}}, "data": [{"compound": "CCCCC(C(=O)O)N1C(=O)/C(=C/C=C/c2ccc([N+](=O)[O-])o2)SC1=S", "note": "(stereo not shown) [6b, 2-((Z)-5-((E)-3-(5-nitrofuran-2-yl)allylidene)-4-oxo-2-thioxothiazolidin-3-yl)hexanoic acid]", "values": [{"measurement": "GI50", "setting": "[1]", "result": 1.91, "unit": "µM"}, {"measurement": "CC50", "setting": "[1]; read-out: LC50, SK-MEL-28, 48 h", "result": 7.29, "unit": "µM"}, {"measurement": "GI50", "setting": "[2]", "result": 3.28, "unit": "µM"}, {"measurement": "CC50", "setting": "[2]; read-out: LC50, MOLT-4, 48 h", "result": 90.2, "unit": "µM"}, {"measurement": "TGI", "setting": "[3]", "result": 6.09, "unit": "µM"}, {"measurement": "GI50", "setting": "[4]", "result": 3.1, "unit": "µM"}, {"measurement": "TGI", "setting": "[5]", "result": 9.30, "unit": "µM"}, {"measurement": "TGI", "setting": "[6]", "result": 13.5, "unit": "µM"}, {"measurement": "TGI", "setting": "[7]", "result": 10.2, "unit": "µM"}, {"measurement": "GI50", "setting": "[8]", "result": 2.24, "unit": "µM"}, {"measurement": "CC50", "setting": "[8]; read-out: LC50, NCI/ADR-RES, 48 h", "result": 29.3, "unit": "µM"}, {"measurement": "TGI", "setting": "[9]; HL-60(TB), 48 h", "result": 10.1, "unit": "µM"}, {"measurement": "GI50", "setting": "[9]; Homo sapiens, HL-60, 48 h, HL-60(TB), 48 h", "result": 2.68, "unit": "µM"}, {"measurement": "CC50", "setting": "[9]; Homo sapiens, HL-60, 48 h, read-out: LC50, HL-60(TB), 48 h", "result": "> 100", "unit": "µM"}, {"measurement": "IC50", "setting": "[10]", "result": 3.99, "unit": "µM"}, {"measurement": "IC50", "setting": "[11]", "result": 36.2, "unit": "µM"}, {"measurement": "IC50", "setting": "[12]", "result": 10.3, "unit": "µM"}, {"measurement": "IC50", "setting": "[13]", "result": 8.39, "unit": "µM"}, {"measurement": "IC50", "setting": "[14]", "result": 8.01, "unit": "µM"}, {"measurement": "IC50", "setting": "[15]", "result": 4.18, "unit": "µM"}, {"measurement": "IC50", "setting": "[16]", "result": 17.6, "unit": "µM"}, {"measurement": "IC50", "setting": "[17]", "result": 6.39, "unit": "µM"}, {"measurement": "IC50", "setting": "[18]", "result": 13.9, "unit": "µM"}, {"measurement": "IC50", "setting": "[19]", "result": 15.2, "unit": "µM"}, {"measurement": "IC50", "setting": "[20]", "result": 4.58, "unit": "µM"}, {"measurement": "TGI", "setting": "[21]", "result": 8.15, "unit": "µM"}, {"measurement": "GI50", "setting": "[22]; Homo sapiens", "result": 1.8, "unit": "µM"}, {"measurement": "TGI", "setting": "[22]", "result": 3.38, "unit": "µM"}, {"measurement": "TGI", "setting": "[23]", "result": 10.2, "unit": "µM"}, {"measurement": "GI50", "setting": "[24]; read-out: MG_MID GI50", "result": 2.43, "unit": "µM"}, {"measurement": "CC50", "setting": "[24]; read-out: MG_MID LC50", "result": 38.7, "unit": "µM"}, {"measurement": "GI50", "setting": "[25]; read-out: MG_MID GI50", "result": 2.01, "unit": "µM"}, {"measurement": "CC50", "setting": "[25]; read-out: MG_MID LC50", "result": 12, "unit": "µM"}, {"measurement": "GI50", "setting": "[26]", "result": 1.75, "unit": "µM"}, {"measurement": "GI50", "setting": "[27]", "result": 3.13, "unit": "µM"}, {"measurement": "CC50", "setting": "[27]; read-out: LC50, TK-10, 48 h", "result": 28.3, "unit": "µM"}, {"measurement": "TGI", "setting": "[28]", "result": 9.85, "unit": "µM"}, {"measurement": "GI50", "setting": "[28]; Homo sapiens", "result": 3.57, "unit": "µM"}, {"measurement": "CC50", "setting": "[28]; Homo sapiens, read-out: LC50, HOP-92, 48 h", "result": 42.2, "unit": "µM"}, {"measurement": "GI50", "setting": "[29]; Homo sapiens", "result": 1.7, "unit": "µM"}, {"measurement": "CC50", "setting": "[29]; Homo sapiens, read-out: LC50, SK-MEL-2, 48 h", "result": 6.12, "unit": "µM"}, {"measurement": "TGI", "setting": "[29]", "result": 3.22, "unit": "µM"}, {"measurement": "TGI", "setting": "[30]", "result": 5.74, "unit": "µM"}, {"measurement": "GI50", "setting": "[30]; Homo sapiens", "result": 2.26, "unit": "µM"}, {"measurement": "CC50", "setting": "[30]; Homo sapiens, read-out: LC50, EKVX, 48 h", "result": 19.7, "unit": "µM"}, {"measurement": "GI50", "setting": "[31]; Homo sapiens", "result": 2.08, "unit": "µM"}, {"measurement": "TGI", "setting": "[31]", "result": 4.62, "unit": "µM"}]}, {"compound": "CC(C(=O)O)N1C(=O)/C(=C/C=C/c2ccc([N+](=O)[O-])o2)SC1=S", "note": "(stereo not shown) [2b, 2-((Z)-5-((E)-3-(5-Nitrofuran-2-yl)allylidene)-4-oxo-2-thioxothiazolidin-3-yl)propanoic acid]", "values": [{"measurement": "IC50", "setting": "[10]", "result": 12.1, "unit": "µM"}, {"measurement": "IC50", "setting": "[11]", "result": "> 40", "unit": "µM"}, {"measurement": "IC50", "setting": "[12]", "result": 25.4, "unit": "µM"}, {"measurement": "IC50", "setting": "[13]", "result": 30.6, "unit": "µM"}, {"measurement": "IC50", "setting": "[14]", "result": 24.5, "unit": "µM"}, {"measurement": "IC50", "setting": "[15]", "result": 12.5, "unit": "µM"}, {"measurement": "IC50", "setting": "[16]", "result": 39, "unit": "µM"}, {"measurement": "IC50", "setting": "[17]", "result": 11.3, "unit": "µM"}, {"measurement": "IC50", "setting": "[18]", "result": 4.78, "unit": "µM"}, {"measurement": "IC50", "setting": "[19]", "result": 29, "unit": "µM"}, {"measurement": "IC50", "setting": "[20]", "result": 9.98, "unit": "µM"}]}]}
